Consider one compound from publication PMC6562366 (Molecular Therapy Oncolytics, 2019).

This experiment concerns the target PIM-2 (Homo sapiens, UniProt Q9P1W9). The experiment in a line: radiometric filter-binding kinase assay, recombinant kinase, dose-response. Type of experiment: biochemical.

Chain of PIM-2 (Q9P1W9 whole entry): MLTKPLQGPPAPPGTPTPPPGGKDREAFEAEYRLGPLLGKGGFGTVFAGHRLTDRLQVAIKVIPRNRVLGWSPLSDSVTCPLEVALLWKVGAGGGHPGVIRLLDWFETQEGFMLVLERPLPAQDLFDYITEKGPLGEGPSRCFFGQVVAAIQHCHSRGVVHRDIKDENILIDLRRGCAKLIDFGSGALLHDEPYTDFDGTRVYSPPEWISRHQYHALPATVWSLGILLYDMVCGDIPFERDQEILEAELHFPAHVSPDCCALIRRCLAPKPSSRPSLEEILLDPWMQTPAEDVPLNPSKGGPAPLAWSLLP

What is called IC50 is the midpoint of a concentration-inhibition curve. `C/C(O)=C(\C#N)C(=O)Nc1ccc(C(F)(F)F)cc1` [Ter, Teriflunomide]: the IC50 came to 255 µM.
